Measurements from patent publication US8471005B2 (Cephalon, Inc., priority 2008, dated 2013).
Where two headings read alike, the source gives them in different places.

Legend:
[1] = target: T1, ALK (Homo sapiens, UniProt Q9UM73); test: ALK Kinase Assay (ELISA/TRF, PLC-γ substrate); format: biochemical; conditions: read-out: ALK Potency
T1 construct: host or cells: baculovirus expression system
In short: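 PLC-γ coat 10 μg/mL in TBS; ALK 30 ng/ml added to start; 37° C, 15 min; Eu-N1 PT66 antibody detection (TRF). IC50: % inhibition vs log10 [cpd], variable-slope sigmoidal fit.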

[2] = target: T2, JAK2 (Homo sapiens, UniProt O60674); test: Recombinant Human JAK2 Kinase Assay (TRF); format: biochemical; conditions: read-out: JAK2 Potency
T2 construct: host or cells: baculovirus expression system
In short: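 Baculovirus-expressed JAK2 (15 ng/ml) phosphorylated a biotinylated 15-mer peptide captured on Neutravidin-coated plates, in 20 mM HEPES pH 7.2 with 0.2 μM ATP, 1 mM MnCl2, 0.1% BSA and 2.5% DMSO. Reaction ran 20 min at room temperature; phosphopeptide was detected by time-resolved fluorescence with Eu-N1-labelled PY100 antibody.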

[3] = ALK kinase inhibition, 1 μM ATP
[4] = JAK2 kinase inhibition, 0.2 μM ATP

T1 sequence (Q9UM73 19-1620): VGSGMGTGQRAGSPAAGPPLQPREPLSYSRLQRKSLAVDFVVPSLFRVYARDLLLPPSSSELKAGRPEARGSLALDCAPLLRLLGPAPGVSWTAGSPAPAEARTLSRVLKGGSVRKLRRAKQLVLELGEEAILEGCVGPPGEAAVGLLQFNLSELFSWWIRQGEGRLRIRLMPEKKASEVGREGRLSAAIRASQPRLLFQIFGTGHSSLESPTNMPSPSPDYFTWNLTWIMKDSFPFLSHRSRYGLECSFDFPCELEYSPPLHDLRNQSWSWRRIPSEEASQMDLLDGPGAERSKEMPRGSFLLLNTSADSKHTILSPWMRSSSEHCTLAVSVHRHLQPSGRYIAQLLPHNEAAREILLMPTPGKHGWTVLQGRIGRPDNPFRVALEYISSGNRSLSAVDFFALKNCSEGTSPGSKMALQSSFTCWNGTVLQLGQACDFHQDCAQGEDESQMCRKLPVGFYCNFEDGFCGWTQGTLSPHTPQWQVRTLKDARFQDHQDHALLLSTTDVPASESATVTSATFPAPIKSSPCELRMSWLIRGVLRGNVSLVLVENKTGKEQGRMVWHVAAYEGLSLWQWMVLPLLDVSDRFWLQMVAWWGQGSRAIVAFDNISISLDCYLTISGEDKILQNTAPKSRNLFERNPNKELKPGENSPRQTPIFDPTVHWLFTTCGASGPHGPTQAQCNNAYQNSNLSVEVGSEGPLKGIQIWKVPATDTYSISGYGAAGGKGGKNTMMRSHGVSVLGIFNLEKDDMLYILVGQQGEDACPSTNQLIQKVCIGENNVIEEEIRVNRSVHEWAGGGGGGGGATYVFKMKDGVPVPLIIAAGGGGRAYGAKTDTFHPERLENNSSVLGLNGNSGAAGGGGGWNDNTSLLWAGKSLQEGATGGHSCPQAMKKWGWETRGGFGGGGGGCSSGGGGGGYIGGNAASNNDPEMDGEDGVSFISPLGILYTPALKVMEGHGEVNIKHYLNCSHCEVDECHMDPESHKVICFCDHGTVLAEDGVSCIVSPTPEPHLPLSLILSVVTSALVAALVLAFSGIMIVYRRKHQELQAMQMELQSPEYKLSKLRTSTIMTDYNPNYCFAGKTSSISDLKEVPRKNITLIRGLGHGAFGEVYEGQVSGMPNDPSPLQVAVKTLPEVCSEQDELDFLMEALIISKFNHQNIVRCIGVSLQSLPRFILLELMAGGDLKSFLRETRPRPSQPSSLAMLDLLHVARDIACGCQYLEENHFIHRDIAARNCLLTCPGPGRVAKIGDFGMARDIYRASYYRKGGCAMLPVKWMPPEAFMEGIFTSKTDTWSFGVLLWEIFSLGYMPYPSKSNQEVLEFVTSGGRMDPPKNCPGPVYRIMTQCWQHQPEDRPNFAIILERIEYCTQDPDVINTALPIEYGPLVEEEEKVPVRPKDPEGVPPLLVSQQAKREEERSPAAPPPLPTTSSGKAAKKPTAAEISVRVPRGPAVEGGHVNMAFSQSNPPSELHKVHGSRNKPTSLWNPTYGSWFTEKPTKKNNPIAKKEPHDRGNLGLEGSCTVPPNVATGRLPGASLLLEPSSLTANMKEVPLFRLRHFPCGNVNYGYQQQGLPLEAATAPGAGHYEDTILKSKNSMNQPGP
T2 sequence (O60674 whole entry): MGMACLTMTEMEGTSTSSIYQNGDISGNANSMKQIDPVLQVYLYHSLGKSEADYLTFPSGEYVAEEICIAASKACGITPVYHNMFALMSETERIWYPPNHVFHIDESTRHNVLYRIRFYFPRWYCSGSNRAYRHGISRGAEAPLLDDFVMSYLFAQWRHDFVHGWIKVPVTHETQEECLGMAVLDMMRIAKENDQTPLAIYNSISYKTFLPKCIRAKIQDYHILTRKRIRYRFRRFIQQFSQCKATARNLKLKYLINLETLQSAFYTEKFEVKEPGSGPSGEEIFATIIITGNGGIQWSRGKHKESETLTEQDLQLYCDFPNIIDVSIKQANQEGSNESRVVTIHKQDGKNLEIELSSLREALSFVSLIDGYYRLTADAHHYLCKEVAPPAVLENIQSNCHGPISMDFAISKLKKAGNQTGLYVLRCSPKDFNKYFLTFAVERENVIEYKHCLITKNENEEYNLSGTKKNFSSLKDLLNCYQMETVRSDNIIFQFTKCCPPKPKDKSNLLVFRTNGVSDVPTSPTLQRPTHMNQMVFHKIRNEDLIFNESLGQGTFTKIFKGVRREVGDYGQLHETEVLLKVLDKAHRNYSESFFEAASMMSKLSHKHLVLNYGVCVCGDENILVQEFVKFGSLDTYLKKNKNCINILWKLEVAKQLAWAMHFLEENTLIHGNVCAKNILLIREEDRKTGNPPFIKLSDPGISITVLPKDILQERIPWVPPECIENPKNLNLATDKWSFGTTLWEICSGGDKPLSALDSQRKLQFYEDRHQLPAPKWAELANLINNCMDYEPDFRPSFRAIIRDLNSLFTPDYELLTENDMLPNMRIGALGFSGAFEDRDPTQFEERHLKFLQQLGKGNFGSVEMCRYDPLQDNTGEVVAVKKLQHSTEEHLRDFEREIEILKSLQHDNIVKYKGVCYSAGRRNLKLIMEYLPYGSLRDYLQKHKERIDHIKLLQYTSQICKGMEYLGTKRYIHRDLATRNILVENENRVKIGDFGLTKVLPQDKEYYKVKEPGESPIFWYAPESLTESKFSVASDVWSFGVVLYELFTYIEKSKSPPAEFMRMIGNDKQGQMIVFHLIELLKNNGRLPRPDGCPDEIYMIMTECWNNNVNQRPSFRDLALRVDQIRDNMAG

Row | Compound | IC50 ([1]; ALK Kinase Inhibition) [nM] | IC50 ([2]; JAK2 Kinase Inhibition) [nM] | IC50 [1, 3] [nM] | IC50 [2, 4] [nM]
1 | CN1CCN(Cc2nc3ccc(Nc4ncc5ccc(-c6cccc(S(=O)(=O)NC(C)(C)C)c6)n5n4)cc3[nH]2)CC1 [Example 1524, N-tert-Butyl-3-{2-[2-(4-methyl-piperazin-1-ylmethyl)-3H-benzimidazol-5-ylamino]-pyrrolo[2,1-f][1,2,4]triazin-7-yl}-benzenesulfonamide] | 100 to 1000 | < 100 |  | 
2 | C[C@@H](O)CN1CCN(c2ccc(Nc3ncc4ccc(-c5cccc(S(=O)(=O)NC(C)(C)C)c5)n4n3)cc2)CC1 [Example 426, N-tert-Butyl-3-(2-{4-[4-((R)-2-hydroxy-propyl)-piperazin-1-yl]-phenylamino}-pyrrolo[2,1-f][1,2,4]triazin-7-yl)-benzenesulfonamide] | 100 to 1000 | < 100 |  | 
3 | N#CCCn1cccc1-c1ccc2cnc(Nc3ccc(N4CCOCC4)cc3)nn12 [Example 1293, 3-{2-[2-(4-Morpholin-4-yl-phenylamino)-pyrrolo[2,1-f][1,2,4]triazin-7-yl]-pyrrol-1-yl}-propionitrile] |  |  | 100 to 1000 | < 100
4 | COc1ccc(-c2ccc3cnc(Nc4cnn(CCN5CCOCC5)c4)nn23)cn1 [Example 1192, [7-(6-Methoxy-pyridin-3-yl)-pyrrolo[2,1-f][1,2,4]triazin-2-yl]-[1-(2-morpholin-4-yl-ethyl)-1H-pyrazol-4-yl]-amine] |  |  | 1000 to 10000 | < 100
5 | CN1CCN(CC2CCCN(c3ccc(Nc4ncc5ccc(-c6ccccc6N(C)S(C)(=O)=O)n5n4)cc3)C2)CC1 (stereo not shown) [Example 455, N-Methyl-N-[2-(2-{4-[3-(4-methyl-piperazin-1-ylmethyl)-piperidin-1-yl]-phenylamino}-pyrrolo[2,1-f][1,2,4]triazin-7-yl)-phenyl]-methanesulfonamide] | < 100 | < 100 |  | 
6 | N-{2-[2-(2-Oxo-2,3-dihydro-benzooxazol-6-ylamino)pyrrolo[2,1-f][1,2,4]triazin-7-yl]phenyl}methanesulfonamide [Example 629] |  |  | 100 to 1000 | < 100
7 | COc1ccc(-c2ccc3cnc(Nc4ccc(C5C(=O)N(C)CCN5C)cc4)nn23)cn1 (stereo not shown) [Example 1072, 3-{4-[7-(6-Methoxy-pyridin-3-yl)-pyrrolo[2,1-f][1,2,4]triazin-2-ylamino]-phenyl}-1,4-dimethyl-piperazin-2-one] |  |  | 1000 to 10000 | < 100
8 | CN1CCN(CCn2cc(Nc3ncc4ccc(-c5cnn(C)c5)n4n3)cn2)CC1 [Example 1213, {1-[2-(4-Methyl-piperazin-1-yl)-ethyl]-1H-pyrazol-4-yl}-[7-(1-methyl-1H-pyrazol-4-yl)-pyrrolo[2,1-f][1,2,4]triazin-2-yl]-amine] |  |  | 100 to 1000 | < 100
9 | CN1CCN(Cc2cccc(Nc3ncc4ccc(-c5cccc(S(C)(=O)=O)c5)n4n3)n2)CC1 [Example 1124, [7-(3-Methanesulfonyl-phenyl)-pyrrolo[2,1-f][1,2,4]triazin-2-yl]-[6-(4-methyl-piperazin-1-ylmethyl)-pyridin-2-yl]-amine] |  |  | > 10000 | > 10000
10 | CS(=O)(=O)Nc1cccc(-c2ccc3cnc(Nc4ccc(N5CCC(N6CCOCC6)CC5)cc4)nn23)c1 [Example 636, N-(3-{2-[4-(4-Morpholin-4-yl-piperidin-1-yl)-phenylamino]-pyrrolo[2,1-f][1,2,4]triazin-7-yl}-phenyl)-methanesulfonamide] |  |  | 100 to 1000 | < 100
11 | CN(c1ccccc1-c1ccc2cnc(Nc3ccc4nn(CCN5CCOCC5)cc4c3)nn12)S(C)(=O)=O [Example 1343, N-Methyl-N-(2-{2-[2-(2-morpholin-4-yl-ethyl)-2H-indazol-5-ylamino]-pyrrolo[2,1-f][1,2,4]triazin-7-yl}-phenyl)-methanesulfonamide] |  |  | < 100 | < 100
12 | COc1cc2c(cc1Nc1ncc3ccc(-c4cccc(S(=O)(=O)NC5CC5)c4)n3n1)CCN(C[C@@H](C)O)CC2 [Example 523, N-Cyclopropyl-3-{2-[3-((R)-2-hydroxy-propyl)-8-methoxy-2,3,4,5-tetrahydro-1H-benzo[d]azepin-7-ylamino]-pyrrolo[2,1-f][1,2,4]triazin-7-yl}benzenesulfonamide] |  |  | < 100 | 100 to 1000
13 | CC(C)(C)C(=O)Nc1ccccc1-c1ccc2cnc(Nc3ccc(N4CCOCC4)cc3)nn12 [Example 401, 2,2-Dimethyl-N-{2-[2-(4-morpholin-4-yl-phenylamino)-pyrrolo[2,1-f][1,2,4]triazin-7-yl]-phenyl}-propionamide] | > 10000 | < 100 |  | 
14 | CCS(=O)(=O)Nc1cccc(-c2ccc3cnc(Nc4ccc(N5CCN(C)CC5)cc4)nn23)c1 [Example 415, Ethanesulfonic acid (3-{2-[4-(4-methyl-piperazin-1-yl)-phenylamino]-pyrrolo[2,1-f][1,2,4]triazin-7-yl}-phenyl)-amide] | 100 to 1000 | < 100 |  | 
15 | COc1ccccc1-c1c(C)c(C)c2cnc(Nc3ccc(N4CCN(C)CC4)cc3)nn12 [Example 1107] |  |  | < 100 | < 100
16 | CNC(=O)c1ccc(-c2ccc3cnc(Nc4cccc(N5CCOCC5)c4)nn23)cc1 [Example 194, N-Methyl-4-[2-(3-morpholin-4-yl-phenylamino)-pyrrolo[2,1-f][1,2,4]triazin-7-yl]-benzamide] | 100 to 1000 | < 100 |  | 
17 | CN1CCC(c2ccc(Nc3ncc4ccc(-c5cccc(CCC#N)c5)n4n3)cc2)CC1 [Example 1149, 3-(3-{2-[4-(1-Methyl-piperidin-4-yl)-phenylamino]-pyrrolo[2,1-f][1,2,4]triazin-7-yl}-phenyl)-propionitrile] |  |  | < 100 | < 100
18 | COc1ccc(-c2ccc3cnc(Nc4ccc(C5CCN(CC(N)=O)CC5)c(OC)c4)nn23)cn1 [Example 911, 2-(4-{2-Methoxy-4-[7-(6-methoxy-pyridin-3-yl)-pyrrolo[2,1-f][1,2,4]triazin-2-ylamino]-phenyl}-piperidin-1-yl)-acetamide] |  |  | < 100 | < 100
19 | CN1CCC(c2ccc(Nc3ncc4ccc(-c5ccc(S(C)(=O)=O)cc5)n4n3)cc2)CC1 [Example 1119, [7-(4-Methanesulfonyl-phenyl)-pyrrolo[2,1-f][1,2,4]triazin-2-yl]-[4-(1-methyl-piperidin-4-yl)-phenyl]-amine] |  |  | < 100 | < 100
20 | COc1ccc(-c2ccc3cnc(Nc4ccc(N5CCN(CC(N)=O)CC5)c(F)c4)nn23)cn1 [Example 1414, 2-(4-{2-Fluoro-4-[7-(6-methoxy-pyridin-3-yl)-pyrrolo[2,1-f][1,2,4]triazin-2-ylamino]-phenyl}-piperazin-1-yl)-acetamide] | 1000 to 10000 | < 100 |  | 

Other lines, results leading:

Row | IC50 ([1]; ALK Kinase Inhibition) [nM] | IC50 ([2]; JAK2 Kinase Inhibition) [nM] | IC50 [1, 3] [nM] | IC50 [2, 4] [nM] | Compound
21 | < 100 | < 100 |  |  | COc1ccccc1-c1ccc2cnc(Nc3cccc(N4CCN(CCO)CC4)c3)nn12 [Example 178, 2-(4-{3-[7-(2-Methoxy-phenyl)-pyrrolo[2,1-f][1,2,4]triazin-2-ylamino]-phenyl}-piperazin-1-yl)-ethanol]
22 |  |  | 1000 to 10000 | 100 to 1000 | COc1ccc(CN2CCOCC2)cc1Nc1ncc2ccc(-c3ccccc3OC)n2n1 [Example 499, (2-Methoxy-5-morpholin-4-ylmethyl-phenyl)-[7-(2-methoxy-phenyl)-pyrrolo[2,1-f][1,2,4]triazin-2-yl]-amine]
23 | 100 to 1000 | < 100 |  |  | COc1ccc(Cl)cc1-c1ccc2cnc(Nc3ccc(N4CCOCC4)cc3)nn12 [Example 3, [7-(5-Chloro-2-methoxy-phenyl)-pyrrolo[2,1-f][1,2,4]triazin-2-yl]-(4-morpholin-4-yl-phenyl)-amine]
24 |  |  | < 100 | 100 to 1000 | COc1cc(CN2CCN(C[C@@H](O)CO)CC2)ccc1Nc1ncc2ccc(-c3ccccc3N(C)S(C)(=O)=O)n2n1 [Example 1228, N-[2-(2-{4-[4-((R)-2,3-Dihydroxy-propyl)-piperazin-1-ylmethyl]-2-methoxy-phenylamino}-pyrrolo[2,1-f][1,2,4]triazin-7-yl)-phenyl]-N-methyl-methanesulfonamide]
25 |  |  | 100 to 1000 | 100 to 1000 | COc1ccccc1-c1ccc2cnc(Nc3ccc4c(c3OC)CN(C3COC3)C4)nn12 [Example 851, (4-Methoxy-2-oxetan-3-yl-2,3-dihydro-1H-isoindol-5-yl)-[7-(2-methoxy-phenyl)-pyrrolo[2,1-f][1,2,4]triazin-2-yl]-amine]
26 | 100 to 1000 | < 100 |  |  | COc1ccccc1-c1ccc2cnc(Nc3ccc(N4CCN(CC(N)=O)CC4)c(F)c3)nn12 [Example 1416, 2-(4-{2-Fluoro-4-[7-(2-methoxy-phenyl)-pyrrolo[2,1-f][1,2,4]triazin-2-ylamino]-phenyl}-piperazin-1-yl)-acetamide]
27 | 100 to 1000 | < 100 |  |  | COc1ccccc1-c1ccc2cnc(Nc3ccc(F)c(N4CCOCC4)c3)nn12 [Example 389, (4-Fluoro-3-morpholin-4-yl-phenyl)-[7-(2-methoxy-phenyl)-pyrrolo[2,1-f][1,2,4]triazin-2-yl]-amine]
28 |  |  | < 100 | < 100 | COc1ccccc1-c1ccc2cnc(Nc3ccc(C4CCN(C)CC4)cc3)nn12 [Example 1132, [7-(2-Methoxy-phenyl)-pyrrolo[2,1-f][1,2,4]triazin-2-yl]-[4-(1-methyl-piperidin-4-yl)-phenyl]-amine]
29 |  |  | < 100 | 100 to 1000 | COc1cc([C@H]2CC[C@H](N3CCOCC3)CC2)ccc1Nc1ncc2ccc(-c3ccccc3OC)n2n1 [Example 1247, N-{2-methoxy-4-[trans-4-(morpholin-4-yl)cyclohexyl]phenyl}-7-(2-methoxyphenyl)pyrrolo[2,1-f][1,2,4]triazin-2-amine]
